Two molecules from paper PMC9024338, “Bruceine H Mediates EGFR-TKI Drug Persistence in NSCLC by Notch3-Dependent β-Catenin Activating FOXO3a Signaling” (Frontiers in Oncology, 2022) can be followed below.

For data set [1], the system named is A549 cells. Kind of data set: cells. The settings on record: A549, 48 h; read-out: IC50 (48 h). Type of data set: cell-based, human. As to the method: (§1) The human NSCLC cell lines (A549, PC-9, and PC-9/GR) and other cell lines (16HBE and LO2) were purchased from the American Type Culture Collection (ATCC, Manassas, VA, USA). […] All cell lines were cultivated at 37°C under 5% CO2.
(§2) The Cell Counting Kit-8 assays (Beyotime, Shanghai, China) were performed to assess cell viability. […] Microplate readers (Infinite F500, Tecan, Mannedorf, Switzerland) were used to measure the absorbance (A) at 450 nm. All samples were assessed in triplicate.

In the next data set the test system is PC-9 cells. Kind of data set: cells. The format is cell-based, human. The settings on record: PC-9, 48 h; read-out: IC50. How it is done:
as §1, §2

Data set [2] concerns A549 cells. Kind of data set: Transwell migration and Matrigel invasion assays. The format is cell-based, human. The settings on record: dose-dependent, 12 h treatment. As to the method: The Transwell insert in a 24-well plate (8 μm, Corning, NY, USA) was taken out, and a 600-μl medium containing 10% FBS was added to the bottom chamber. The A549 cells were resuspended with 10% FBS culture medium, and the diluted cell suspension (3 × 10^5/300 μl) was cultured in the top chamber and then incubated with or without Matrigel (BD BioCoat). After 12 h, the medium in the top chamber was changed to RPMI-1640 without FBS, and BD or BH with different concentrations was added ([31]). After an additional 12 h, the cells that migrated or invaded the bottom side of the polycarbonate film were fixed with methanol for 30 min and then stained for 15 min with 0.1% crystal violet (Solarbio), after which their number was assessed under a microscope (×4, Nikon).

The next data set deals with 16HBE cells. Kind of data set: Toxicity to normal human cell line 16HBE (Figure S1). The format is cell-based. As to the method:
(§3) Figure S1. The toxicity of Bruceine H (BH) and Bruceine D (BD) to 16HBE (A) and LO2 (B) cells was evaluated.

The subject of the next data set is LO2 cells. The data set is described as follows: Toxicity to normal human cell line LO2 (Figure S1). The format is cell-based. How it is done:
as §3

In a further data set the test system is PC-9/GR cells. The data set is described as follows: Apoptosis by flow cytometry (Annexin V-FITC/PI), PC-9/GR. The settings on record: low-dose BH (4, 8 μM), gefitinib 25 μM, alone or combined. Type of data set: cell-based, human. As to the method: After being digested with trypsin without EDTA, the cells were washed gently with culture medium and twice with cold PBS. The pellet was resuspended in 400 μl of 1× binding buffer, the resuspended cells were transferred to flow tubes, then Annexin V-FITC (5 μl) and propidium iodide (10 μl) were added, and the mixture was incubated for 15 min at room temperature in the dark. The percentage of apoptotic cells was determined by flow cytometry (Backman, CA, USA) and FlowJo V10 software.
In general terms: A flow cytometer gives signals particle by particle.

In the next data set the test system is PC-9/GR xenografts. Kind of data set: PC-9/GR xenografts in BALB/c nude mice. The format is in vivo. The settings on record: BH 2.5 mg/kg, gefitinib 25 mg/kg, alone or co-administered, intragastric.
Data set [3] can be described thus: Toxicity study in nude mice: organ index, blood routine, serum biochemistry. Type of data set: in vivo. How it is done:
At the end of the experiment, blood samples were taken and analyzed by blood routine. […] The lungs and spleen were weighed and recorded. H&E staining of the heart, liver, spleen, lungs, and kidneys was performed to evaluate the cytotoxic effects of BH.

The mark [4] stands for this setting: nude mice serum, mean ± SD (Table S4).
Where [5] appears, read: nude mice, routine blood (Table S3).

On to `CC1=CC(=O)[C@@H](O)[C@]2(C)[C@H]3[C@@H](O)[C@H](O)[C@@]4(C)OC[C@@]35[C@@H](C[C@@H]12)OC(=O)[C@H](O)[C@]54O` [BD, bruceine D, reference compound], for which the IC50 in the data set on A549 cells [1] was found to be 26.8 µM; in the data set with PC-9 cells it was 21.8 µM. Also, in the data set with A549 cells [2], the “Transwell migration and invasion of A549” value was “significant anti-invasive and antimigratory actions”. Moreover, the “toxicity to 16HBE cells” value in the data set on 16HBE cells is reported as “higher sensitivity”. In the data set on LO2 cells, the “toxicity to LO2 cells” value is “higher sensitivity”.

Turning to `COc1cc2ncnc(Nc3ccc(F)c(Cl)c3)c2cc1OCCCN1CCOCC1` [Gef, Gefitinib, reference compound], the “apoptosis of PC-9/GR cells” value with PC-9/GR cells is “little effects”. Further, in the data set on PC-9/GR xenografts, the “tumor growth of PC-9/GR xenografts” value is on record as “slight inhibitory effect”. In data set [3] (setting [4]), this molecule yielded an HDL-C of 0.74 ± 0.28 mmol/L, an LDL-C of 0.89 ± 0.45 mmol/L, a TC of 3.49 ± 0.56 mmol/L and a TG of 0.74 ± 0.16 mmol/L. In data set [3] (setting [5]), the GR is on record as 4.593±2.519 ×10^9/L, the “GR (%)” value was 83.467±4.674%, the HCT came to 50.933±6.123% and the HGB is 148.667 ± 17.616 g/L. Also, in data set [3] (setting [5]), the LY was 1.017±0.533 ×10^9/L, the “LY (%)” value is 14.2±2.685%, the MCH was determined as 15.367 ± 0.306 pg and the MCHC was 292 ± 2.646 g/L. Besides, in data set [3] (setting [5]), the MO was 0.213±0.274 ×10^9/L, the “MO (%)” value worked out at 5.067±1.582%, the MPV was found to be 6.933 ± 0.351 fL and the PCT is 0.653±0.110 mL/L. In addition, in data set [3] (setting [5]), the PLT is listed as 934.333±117.1 ×10^9/L, the RBC is given as 9.687±1.162 ×10^12/L and the WBC is reported as 6.483±1.439 ×10^8/L.

A word on the IC50: it is the point on the concentration scale where inhibition reaches its midpoint.
